Measurements from paper PMC8997437, “Apelin Resistance Contributes to Muscle Loss during Cancer Cachexia in Mice” (Cancers, 2022).
Entries after “also recorded” stand apart in the source; their conditions may differ.

Legend:
MuRF1 promoter = assay: MuRF1 promoter-Firefly luciferase reporter assay in myoblasts; type: cell-based, mouse; settings: 10 μM dexamethasone, 24 h, normalised to RLuc, n = 12
Experimental: We used C2C12 myoblasts grown in a 24-well plate and transfected with pLKO or preproapelin-expressing plasmids with murine MuRF1 promoter-FLuc plasmid, and pRL-TK plasmid (Promega) using Lipofectamine 2000 (Life Technologies Europe BV, Carlsbad, CA, USA). The next day, they were treated with vehicle or 10 μM dexamethasone for 24 h. Luciferase activities were measured using the Dual-Luciferase Reporter Assay System (Promega) and a luminometer (Glomax 20/20 single tube luminometer, Promega).
Myoblasts were transfected with a plasmid in which Firefly luciferase (FLuc) is under the control of a MuRF1 promoter, with another for Renilla luciferase (RLuc), under the control of thymidine kinase promoter to normalize the data (ratio 50:1) and with the empty vector pLKO, as control, or a preproapelin-expressing plasmid (Apln). After 24 h, myoblasts were treated with vehicle or with 10 μM Dexa for 24 h. […] Ordinary one-way ANOVA, ** p ≤ 0.01, **** p ≤ 0.0001, n = 12.

C2C12 myotubes [1] = assay: Total protein content of myotubes; type: cell-based, mouse; settings: 10 μM dexamethasone, n = 6
Experimental: Total proteins were extracted from myotubes and muscles and quantitated as in [31]. Proteins were separated by electrophoresis on 4–20% sodium dodecyl sulfate-polyacrylamide gel electrophoresis (SDS-PAGE) (Bio-Rad, Hercules, CA, USA) and transferred to a polyvinylidene difluoride membrane (GE Healthcare, Chicago, IL, USA), which was then saturated for 2 h at RT with 5% bovine serum albumin (BSA) or milk in TBS-T buffer (20 mM Tris, 150 mM NaCl and 0.1% Tween-20) (Sigma). […] Band intensities were analyzed using ImageJ software.

[2] = tested on: MuRF1, atrogin-1 and apelin mRNA in myotubes; assay: Q-PCR of atrophy-related genes in myotubes; type: cell-based, mouse; settings: 10 μM Dexa, 24 h, TBP housekeeping, n = 6
Experimental: Total RNA was isolated from cells or muscles with QIAzol Lysis Reagent (Qiagen, Hilden, Germany) and miRNeasy Kit (Qiagen), as in [31]. RNA concentration and purity were measured in a spectrophotometer (NanoDrop 1000, ThermoFisher Scientific, Waltham, MA, USA).
mRNA/μg in muscle was analyzed using TaqMan reverse transcription reagents (Life Technologies) or SYBR Green (Qiagen). β-Glucuronidase (GUSB), or Tata binding protein (TBP), or Importin 8 (IPO8), or 18S ribosomal RNA (18S) were used as housekeeping genes (HK). To normalize for three HK, we used the ratio between the arithmetic average and the geometric average of the ng of cDNA of each gene, as described in [32].
TBP was used as housekeeping gene.

[3] = tested on: cAMP-responsive elements (CRE); assay: CRE-luciferase (cAMP) reporter assay in transfected myoblasts, forskolin induction; type: cell-based, mouse; settings: 50 μM forskolin, 5 h
Text: To test whether D-apelin still binds APJ, ultimately lowering cAMP levels, we transfected myoblasts with a reporter plasmid with the gene for FLuc under the control of cAMP-responsive elements (CRE). […] As expected, forskolin induced the CRE-related bioluminescent signal more than 20-fold (Figure 4C).

C2C12 myotubes [4] = assay: Myotube diameter measurement (dexamethasone-induced atrophy); type: cell-based, mouse; settings: four day-differentiated myotubes, 24 h; for protection of myotube diameter from dexamethasone-induced atrophy: 10 μM dexamethasone plus 10 nM peptide, n = 261–297
Experimental: C2C12 (ATCC, Manassas, VA, USA), a myoblast cell line from the C3H mouse strain, was grown in DMEM (Dulbecco’s Modified Eagle’s Medium, Gibco, Waltham, MA, USA) with fetal bovine serum (FBS) (Euroclone, Pero, Italy) and 2 mM L-glutamine, (BioWest, Nuaillè, France) and maintained in culture at 37 °C with 5% CO2. Myoblasts differentiate into myotubes when they reached 80% confluence and were cultured for four days in DMEM, 2 mM L-glutamine, horse serum (HS) (Euroclone), at 37 °C and 8% CO2. The differentiation medium was changed every two days.
Pictures of myotubes were acquired with an Olympus Microscope IX71 (10× magnification, 10× ocular lens, Olympus, Shinjuku, Japan) with Cell F (2.6 Build1210, Olympus) imaging software for Life Science microscopy (Olympus Soft Imaging solution GmbH, Munster, Germany). Myotube diameters were measured in blind conditions using ImageJ software (National Institutes of Health, Bethesda, MA, USA). For each photo 10–11 myotubes were measured, calculating the mean of three diameters per myotube, for a total of at least 100 cells per condition.
Four day-differentiated myotubes were exposed for 24 h to vehicle (Ctrl) or 10 μM dexamethasone (Dexa) and representative brightfield images are shown. […] We measured in blind the diameter of four day-differentiated myotubes exposed for 24 h to vehicle or 10 μM Dexamethasone (DEXA) in combination with vehicle or 10 nM apelin peptides of different lengths. […] Kruskal–Wallis test, **** p ≤ 0.0001, n = 261–297.

APJ = settings: cited from earlier work

In the case of `C[C@@H]1C[C@H]2[C@@H]3CCC4=CC(=O)C=C[C@]4(C)[C@@]3(F)[C@@H](O)C[C@]2(C)[C@@]1(O)C(=O)CO` [dexamethasone, Dexamethasone], the “increase of FLuc expression under MuRF1 promoter” value (MuRF1 promoter) is reported as ~15 fold, the “reduction of total protein content” value (C2C12 myotubes [1]) is reported as “about 25%” and the “apelin expression (mRNA)” value [2] is reported as “halved”. For the same compound, the “increase of MuRF1 expression (mRNA)” value [2] was “about 3 fold” and the “increase of atrogin-1 expression (mRNA)” value [2] was 3 fold.

With `C=C[C@@]1(C)CC(=O)[C@]2(O)[C@@]3(C)[C@@H](O)CCC(C)(C)[C@@H]3[C@H](O)[C@H](OC(C)=O)[C@@]2(C)O1` [forskolin] the “induction of CRE-related bioluminescent signal” value [3] was “more than 20 fold”.

In the case of [Pyr1]-Apelin 13 [L-apelin 13], the “protection of myotube diameter from dexamethasone-induced atrophy” value (C2C12 myotubes [4]) is listed as “fully protects myotubes from dexamethasone-induced atrophy; also recorded: fully preserved myotube diameter” and the “affinity for APJ” value (APJ) is listed as “nanomolar affinity”.

In the case of “apelin 36: apelin isoform of 36 amino acids binding APJ (Tocris) (LVQPRGSRNGPGPWQGGRRKFRRQRPRLSHKGPMPF; Apelin-36; UniProt Q9ULZ1 42-77, looked up)”, the “effect of peptide alone on myotube diameter” value (C2C12 myotubes [4]; 10 nM peptide with vehicle) is reported as “reduced myotube diameters” and the “protection of myotube diameter from dexamethasone-induced atrophy” value (C2C12 myotubes [4]) is reported as “Unlike apelin 36, apelin 13 fully protects”.
